What all share (assay type): cell-based
One experiment has as its system Pseudomonas aeruginosa. As to the kind of experiment: Minimum Inhibitory Concentration (MIC) test, two fold serial dilutions. The following applies: Trypticase Soy Broth (TSB); unit assumed. The method, then: (§1) The spectrum of antimicrobial activity and the effect of anionic surfactant on the antimicrobial activity of the antimicrobial agents useful in the present invention were determined in Minimum Inhibitory Concentration (MIC) tests. MICs were determined by two fold serial dilutions of a compound in Minimal Salts Media (M9G), Trypticase Soy Broth (TSB) or Tryticase Soy Broth and anionic surfactant (TSBA). The compounds were tested against Aspergillus niger, Rhodotorula rubra, Escherichia coli and Pseudomonas aeruginosa. Results of the MIC tests are shown below.

Another experiment relates to Escherichia coli. The description is as above. The following applies: unit assumed; for MIC E.Coli M9G: Minimal Salts Media (M9G); for MIC E. Coli TSB: Trypticase Soy Broth (TSB); for MIC E. coli TSBA: Trypticase Soy Broth and anionic surfactant (TSBA). The method, then:
as §1

The subject of a further experiment is Rhodotorula rubra. Described as above. The conditions noted are these: Trypticase Soy Broth (TSB); unit assumed. The method, then: as §1
Another experiment has as its system Aspergillus niger. The description is as above. The conditions noted are these: Trypticase Soy Broth (TSB); unit assumed. The method, then:
as §1

The subject of experiment [1] is Pseudomonas aeruginosa, Klebsiella pneumonia, Enterobacter aerogenes. The experiment is described as follows: Speed of kill test in synthetic cooling water. The following applies: mixed culture 1:1:1, 10^6 cells per mL, concentration giving at least a two log reduction.

5 compounds from patent EP0824862A1, “Dihaloformaldoxime carbamates as antimicrobial agents” (ROHM AND HAAS COMPANY, priority 1996, dated 1998) can be followed below.

Values after ≈ are worked out from the molar mass of the structure shown. Bounds are passed on as bounds.

`CCCCCCCCNC(=O)ON=C(Br)Br` [Compound 7, N-(n-octyl)-dibromoformaldoxime carbamate] came in with an MIC P. aeruginosa TSB with Pseudomonas aeruginosa above 500 µg/mL. Also, in the experiment on Escherichia coli, the MIC E.Coli M9G is below 4 µg/mL, the MIC E. Coli TSB turned out to be 63 µg/mL (≈ 176 µM) and the MIC E. coli TSBA is 125 µg/mL (≈ 349 µM). In the experiment on Rhodotorula rubra, this compound showed an MIC R. Rubra TSB of 12.5 µg/mL (≈ 34.9 µM). Moreover, the MIC A. niger TSB in the experiment on Aspergillus niger amounted to 50 µg/mL (≈ 140 µM).

`Cc1ccc(NC(=O)ON=C(Br)Br)cc1` [Compound 9, N-(4-methylphenyl)-dibromoformaldoxime carbamate]: in experiment [1], the “Effective Concentration 4 Hours” value worked out at 125 ppm and the “Effective Concentration 24 Hours” value came out at 8 ppm. The MIC P. aeruginosa TSB against Pseudomonas aeruginosa came to 16 µg/mL (≈ 47.6 µM). In the experiment with Escherichia coli, the MIC E.Coli M9G was below 4 µg/mL, the MIC E. Coli TSB was determined as 32 µg/mL (≈ 95.2 µM) and the MIC E. coli TSBA amounted to 32 µg/mL (≈ 95.2 µM). This compound also yielded an MIC R. Rubra TSB in the experiment on Rhodotorula rubra of 3.2 µg/mL (≈ 9.52 µM). The compound further had an MIC A. niger TSB with Aspergillus niger below 0.8 µg/mL.

As for `CCCCCCNC(=O)ON=C(Br)Br` [Compound 8, N-(n-hexyl)-dibromoformaldoxime carbamate], in experiment [1], the “Effective Concentration 4 Hours” value is given as below 4 ppm and the “Effective Concentration 24 Hours” value is listed as below 4 ppm. This compound came in with an MIC P. aeruginosa TSB with Pseudomonas aeruginosa of 125 µg/mL (≈ 379 µM). Further, in the experiment on Escherichia coli, the MIC E.Coli M9G is below 4 µg/mL, the MIC E. Coli TSB came to 63 µg/mL (≈ 191 µM) and the MIC E. coli TSBA stood at 32 µg/mL (≈ 97 µM). This compound gave an MIC R. Rubra TSB against Rhodotorula rubra of 25 µg/mL (≈ 75.8 µM). In the experiment on Aspergillus niger, this compound gave an MIC A. niger TSB above 50 µg/mL.

Consider `O=C(Nc1ccc(Cl)cc1)ON=C(Br)Br` [Compound 3, N-(4-chlorophenyl)-dibromoformaldoxime carbamate], for which, in experiment [1], the “Effective Concentration 4 Hours” value was determined as 8 ppm and the “Effective Concentration 24 Hours” value is reported as below 4 ppm. Also, in the experiment with Pseudomonas aeruginosa, the MIC P. aeruginosa TSB was 63 µg/mL (≈ 177 µM). In the experiment with Escherichia coli, the MIC E.Coli M9G was below 4 µg/mL, the MIC E. Coli TSB is 63 µg/mL (≈ 177 µM) and the MIC E. coli TSBA is 63 µg/mL (≈ 177 µM). Besides, in the experiment with Rhodotorula rubra, the MIC R. Rubra TSB was above 50 µg/mL. In addition, the MIC A. niger TSB in the experiment with Aspergillus niger is above 50 µg/mL.

For the compound `CCCCNC(=O)ON=C(Br)Br` [Compound 6, N-(n-butyl)-dibromoformaldoxime carbamate], in experiment [1], the “Effective Concentration 4 Hours” value came to 16 ppm and the “Effective Concentration 24 Hours” value amounted to 16 ppm. The compound further displayed an MIC P. aeruginosa TSB against Pseudomonas aeruginosa of 63 µg/mL (≈ 209 µM). In addition, in the experiment with Escherichia coli, the MIC E.Coli M9G is below 4 µg/mL, the MIC E. Coli TSB was 250 µg/mL (≈ 828 µM) and the MIC E. coli TSBA worked out at 63 µg/mL (≈ 209 µM). For the same compound, in the experiment on Rhodotorula rubra, the MIC R. Rubra TSB is above 50 µg/mL. The compound also showed an MIC A. niger TSB with Aspergillus niger above 50 µg/mL.
